US6806267B1, “Apoptosis-inducing compounds” (priority 1998, dated 2004)

How the values were obtained:
[1] = biological target: T1, peripheral-type benzodiazepine receptor (PBR) (Homo sapiens, UniProt P30536); assay: Radioligand binding assay, inhibition of [^3H]PK 11195 binding to HL-60 homogenates
T1 construct: Cell homogenates (50 μg protein) were incubated with 0.5-50 nM [^3H]; PK 11195; endogenous in cells; host or cells: HL-60 cell homogenate
Experimental: HL-60 cells were harvested by centrifugation at 600 g for 5 min and washing in phosphate-buffered saline. The resulting cell pellet was homogenised in 50 mM Tris/HCl buffer, pH 7.4 (2 ml), using an Ultraturrax homogeniser (10 sec) and then passed 5 times through a 21 gauge needle. Cell homogenates (50 μg protein) were incubated with 0.5-50 nM [^3H] PK 11195 in 50 mM Tris/HCl buffer, pH 7.4 (incubation buffer), in a total volume of 0.5 ml on ice. Total and non-specific/non-saturable binding in each case was determined in the absence and presence of 10 μM unlabelled PK 11195 respectively. All samples were incubated in triplicate for 60 min. The incubation mixtures were then filtered and counted as previously described (O'Beirne, et al., 1988). When testing the potency of a compound to inhibit [^3H] PK 11195 binding, samples were incubated with 2 nM [3H] PK 11195 and various concentrations (0.1 nM to 1 μM) of compound and subsequently treated exactly as above. The resulting Ki values were then generated by the use of the computer programs EBDA and LIGAND.
The amount of radioactivity bound in the presence of the displacer was expressed as a percentage of control bonding and the values represent the mean±SEM of triplicate determinations from one representative experiment performed at least twice. The Ki values were obtained as described in Methods section.

[2] = tested on: PARP (poly ADP-ribose polymerase); assay: Western blot of PARP cleavage in Hela cells; assay type: cell-based, human
Experimental: CML cells were seeded at 2×10^6 cells in 5 mls of growth medium, and treated with 10 μM PBOX-6 for 16 and 24 hr. Hela cells were seeded at 1×10^6 cells per 25 cm^2 flask. Following a 24 hour incubation, the cells were treated with PBOX-3 for a further 48 hours and the cells were scraped up. Cells were then centrifuged at 500 g for 5 min, the supernatant was removed and the pellet was resuspended in 200 μl of PARP sample buffer (62.5 mM Tris/HCl pH 6.8, 6 M urea, 10% (w/v) glycerol, 2% (w/v) SDS, 0.00125% bromophenol blue, and 5% (v/v) β-mercaptoethanol was added immediately before use). Samples were sonicated for 15 sec before aliquoting into 15 μl volumes. Samples were stored at −20° C. until use. 10-15 μl of thawed samples were resolved directly on a 10% polyacrylamide gel and transferred onto PVDF membrane at room temperature using wet transfer apparatus. After transfer, the membrane was blocked overnight in PBS containing 5% dry milk (Marvel). After blocking, the membrane was washed in PBST for 2×2 minutes before incubating for 1 hr with anti-PARP antibody (2 μg/ml in PBST containing 1% dry milk). Following incubation the membrane was washed for 20 minutes in PBST and incubated with goat anti mouse HRP conjugated secondary antibody (1:1000 dilution in PBST containing 1% dry milk). After washing in PBST for 30 minutes, ECL was used to visualise the proteins. […]

HL-60 cells = assay: Apoptosis in HL-60 cells, cytospin and Rapi-Diff staining
K562 cells = assay: Apoptosis in K562 cells, cytospin and staining; assay type: cell-based, human; conditions: K562, 200 μM 1 hour, then PBOX-6 10 μM 16 hours
Jurkat cells [3] = assay type: cell-based, human; conditions: 200 μM
JNK1 and JNK2 = assay type: cell-based, human; conditions: K562
Jurkat cells [4] = assay type: cell-based, human; conditions: 200 μM; remark: listed apart in the source
Experimental: This assay was set up as described by Kohn et al., 1976 with the following modifications.
Cells were seeded at 0.4×10^6 cells/ml and were in the logarithmic phase of growth. […] Cells harvested for the experiments were at a density of 2×10^6 cells/ml.
Cells (1×10^6) were labelled with [^3H] thymidine (sp. act. 2 Ci/mmol) (0.2 μCi/ml) and 1 μM unlabelled thymidine, and incubated for 20 hr. Cells were harvested by centrifugation at 500×g for 5 mins following by two washes in PBS and the pellet was resuspended in 3 ml of PBS. Cells were aliquoted into 1 ml amounts in a 24 well plate and allowed to recover for 1 hr at 37° C. before treating with indicated compounds. Following treatment, cells were washed once in PBS and resuspended in 250 μl of PBS. An aliquot of cells (200 μl) was loaded directly onto a 25 mm diameter glass fiber filter, pore size of 0.2 μM. The cells were lysed on the filter by the addition of 5 ml lysis buffer (2% (w/v) SDS, 10 mM disodium EDTA (pH 10) supplemented with 0.5 mg/ml proteinase K. The lysis buffer was allowed to flow slowly through the filter without suction. Filters were washed using 3 ml wash solution (0.02M Na3EDTA pH 10) allowing it to flow without suction. Filters were eluted in the dark with an alkaline solution (0.04M EDTA plus tetrapropylammonium hydroxide (10% in H2O ) added in the amount required to give pH 12.1). The elution apparatus consisted of a filter funnel with output tubing passing through a peristaltic pump to a collector. Elution took place overnight at a flow rate of 0.05 ml/min. Following elution, filters were treated with 0.4 ml HCl (1N) for 1 hr at 70° C. followed by 2.5 ml NaOH (0.4N) for 30 min at room temp. Scintillation fluid (10 ml) was added and radioactivity remaining on the filters was determined by scintillation counting.

T1 sequence (P30536 whole entry): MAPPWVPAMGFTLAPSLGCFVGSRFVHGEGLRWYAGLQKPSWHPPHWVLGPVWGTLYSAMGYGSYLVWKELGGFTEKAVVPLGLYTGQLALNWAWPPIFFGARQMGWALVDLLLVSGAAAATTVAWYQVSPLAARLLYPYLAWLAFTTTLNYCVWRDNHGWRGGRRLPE

Q: With `CC(=O)OC1=C(c2ccccc2)Oc2cc3ccccc3cc2-n2cccc21` [PBOX-3, 4-Acetoxy-5-phenylnaphto[2,3-b]pyrrolo[1,2-d][1,4]oxazepine] as the compound, how does the Ki [1] read?
A: Its Ki is 6 ± 1.9 nM.

Q: And the PARP cleavage [2]?
A: The PARP cleavage was “induced PARP cleavage”.

Q: And the degree of necrosis (HL-60 cells; HL-60 cells, 10 μM, 16 hours)?
A: The degree of necrosis was “negligible”.

Q: What about the cytotoxicity at 10 µM (HL-60 cells; Homo sapiens, HL-60, 16 h, read-out: % Apoptosis) of the same compound?
A: The cytotoxicity at 10 µM was 23.5 ± 2.1%.

Q: For `C[C@@H](CN1CC(=O)NC(=O)C1)N1CC(=O)NC(=O)C1` [ICRF 187, reference compound], which “effect of pretreatment on PBOX-6 induced apoptosis” value (K562 cells) is on record?
A: The value was “reduced but did not completely inhibit”.

Q: What about the “effect of pretreatment on etoposide induced apoptosis” value (Jurkat cells [3]) of the same compound?
A: Its value is “inhibited apoptosis induced by etoposide”.

Q: What about the “effect of Topo II inhibitor pretreatment on PBOX-6 induced JNK activation” value (JNK1 and JNK2) of the same compound?
A: Its value is “failed to prevent against PBOX-6 induced activation of JNK”.

Q: What about the “effect of pretreatment on etoposide induced DNA strand breaks” value (Jurkat cells [4]) of the same compound?
A: The value was “prevented etoposide induced DNA strand breaks”.
